# From patent publication US4659804A, “(Bis-1,7-S-acetamidomethyl-L-cysteine)salmon calcitonin” (Armour Pharmaceutical Company, priority 1984, dated 1987)
# Tested on: serum calcium concentration
# Assay: Biological assay of calcitonin analogs in vivo: reduction of serum calcium concentration, 2×2 parallel line assay
# Parameters: species or system Rats
# Conditions: standard salmon calcitonin used in the assay
# Experimental: The biological potency of [1,7-Di-Cys(Acm)]salmon calcitonin was determined by comparing the reduction of serum calcium concentration which followed administration by graded doses of [1,7-Di-Cys(Acm)]SCT and synthetic salmon calcitonin standard. Rats were divided into four groups of seven animals, and each group was assigned at random to a dose of standard or test solution. Low and high doses were chosen from the linear portion of the dose-response curve. For the salmon calcitonin standard, the values were 0.7 and 2.1 mcg. peptide/100 g. body weight (BW). This dose approximates 3 and 9 MU/100 g. BW. Peptides were given by subcutaneous injection (0.2 ml/100 g. BW) and blood was withdrawn 1 hour later for serum calcium determination. Sera are processed and analyzed within two hours of collection. […]. Results were analyzed by a 2×2 parallel line assay [Gaddum, J. H., J. Pharm. Pharmacol., 6, 345 (1953)]. The standard salmon calcitonin used was independently determined to contain greater than 4,000 IU/mg. [1,7-Di-Cys(Acm)]SCT assayed at 4250 IU/mg.
structure (smiles),measurement,value
"CC(C)C[C@H](NC(=O)[C@H](CCCCN)NC(=O)CNC(=O)[C@H](CC(C)C)NC(=O)[C@@H](NC(=O)[C@@H]1CSSC[C@H](N)C(=O)N[C@@H](CO)C(=O)N[C@@H](CC(N)=O)C(=O)N[C@@H](CC(C)C)C(=O)N[C@@H](CO)C(=O)N[C@@H]([C@@H](C)O)C(=O)N1)C(C)C)C(=O)N[C@@H](CO)C(=O)N[C@@H](CCC(N)=O)C(=O)N[C@@H](CCC(=O)O)C(=O)N[C@@H](CC(C)C)C(=O)N[C@@H](Cc1c[nH]cn1)C(=O)N[C@@H](CCCCN)C(=O)N[C@@H](CC(C)C)C(=O)N[C@@H](CCC(N)=O)C(=O)N[C@H](C(=O)N[C@@H](Cc1ccc(O)cc1)C(=O)N1CCC[C@H]1C(=O)N[C@@H](CCCNC(=N)N)C(=O)N[C@H](C(=O)N[C@@H](CC(N)=O)C(=O)N[C@H](C(=O)NCC(=O)N[C@@H](CO)C(=O)NCC(=O)N[C@H](C(=O)N1CCC[C@H]1C(N)=O)[C@@H](C)O)[C@@H](C)O)[C@@H](C)O)[C@@H](C)O [standard salmon calcitonin, Salmon calcitonin]","biological potency of the standard, independently determined","greater than 4,000 IU/mg"
